The test system of this experiment is Adrenomedullin (Homo sapiens). In words: Affinity against human adrenomedullin.

Data on 24 compounds can be found in ChEMBL document CHEMBL1139542, “Synthesis, biological evaluation, and three-dimensional quantitative structure-activity relationship study of small-molecule positive modulators of adrenomedullin” (J Med Chem, 2005).

Molecules are shown by their SMILES.

In the case of `O=C(CCCCCCC(=O)NNC(=O)COc1ccccc1)NNC(=O)COc1ccccc1`, the Affinity was determined as 20%.

`Nn1c(CCCCCCCCc2nnc(COc3ccc4ccccc4c3O)n2N)nnc1COc1ccc2ccccc2c1O` returned an Affinity of 42%.

`c1ccc(OCc2nnc(CCCCc3nnc(COc4ccccc4)o3)o2)cc1` displayed an Affinity of 18%.

Compound `c1ccc(OCc2nnc(CCCCCc3nnc(COc4ccccc4)o3)o2)cc1` yielded an Affinity of 4%.

In turn, `Clc1ccc(OCc2nnc(CCCCCCCCc3nnc(COc4ccc(Cl)cc4Cl)n3Nc3ccccc3)n2Nc2ccccc2)c(Cl)c1` yielded an Affinity of 68%.

Regarding `c1ccc(Cn2c(CCCCCc3nnc(COc4ccccc4)n3Cc3ccccc3)nnc2COc2ccccc2)cc1`, the Affinity worked out at 14%.

In turn, `Nn1c(CCCCCCCCc2nnc(COc3c(O)ccc4ccccc34)n2N)nnc1COc1c(O)ccc2ccccc12` had an Affinity of 46%.

`c1ccc(Cn2c(CCCCCCc3nnc(COc4ccccc4)n3Cc3ccccc3)nnc2COc2ccccc2)cc1` had an Affinity of 3%.

For `c1ccc(Nn2c(CCCCCCCCc3nnc(COc4ccccc4)n3Nc3ccccc3)nnc2COc2ccccc2)cc1`, the Affinity was found to be 81%.

With `Nn1c(CCCCCCCCc2nnc(COc3ccc(Cl)cc3)n2N)nnc1COc1ccc(Cl)cc1`, the Affinity was determined as 19%.

Turning to `O=C(CCCCCCCCC(=O)NNC(=O)COc1ccccc1)NNC(=O)COc1ccccc1`, the Affinity is 25%.

As to `O=C(CCCCC(=O)NNC(=O)COc1ccccc1)NNC(=O)COc1ccccc1`, the Affinity was 1%.

The compound `c1ccc(Cn2c(CCCCCCCCc3nnc(COc4ccccc4)n3Cc3ccccc3)nnc2COc2ccccc2)cc1` came in with an Affinity of 4%.

As to `Oc1ccc2ccccc2c1OCc1nnc(CCCCCCCCc2nnc(COc3c(O)ccc4ccccc34)n2Nc2ccccc2)n1Nc1ccccc1`, the Affinity came out at 24%.

Compound `c1ccc(Cn2c(CCCCCCCc3nnc(COc4ccccc4)n3Cc3ccccc3)nnc2COc2ccccc2)cc1` had an Affinity of 20%.

In turn, `c1ccc(OCc2nnc(CCCCCCCCc3nnc(COc4ccccc4)o3)o2)cc1` returned an Affinity of 5%.

For the compound `c1ccc(OCc2nnc(CCCCCCCc3nnc(COc4ccccc4)o3)o2)cc1`, the Affinity turned out to be 6%.

The compound `Nn1c(CCCCCCCCc2nnc(COc3ccc(Cl)cc3Cl)n2N)nnc1COc1ccc(Cl)cc1Cl` registered an Affinity of 48%.

For `Clc1ccc(OCc2nnc(CCCCCCCCc3nnc(COc4ccc(Cl)cc4)n3Nc3ccccc3)n2Nc2ccccc2)cc1`, the Affinity is 51%.

With `Oc1c(OCc2nnc(CCCCCCCCc3nnc(COc4ccc5ccccc5c4O)n3Nc3ccccc3)n2Nc2ccccc2)ccc2ccccc12`, the Affinity was 83%.

Regarding `c1ccc(Cn2c(CCCCc3nnc(COc4ccccc4)n3Cc3ccccc3)nnc2COc2ccccc2)cc1`, the Affinity came to 19%.

With `O=C(CCCCCCCC(=O)NNC(=O)COc1ccccc1)NNC(=O)COc1ccccc1`, the Affinity is 7%.

Take `O=C(CCCCCC(=O)NNC(=O)COc1ccccc1)NNC(=O)COc1ccccc1`: the Affinity is 16%.

`c1ccc(OCc2nnc(CCCCCCc3nnc(COc4ccccc4)o3)o2)cc1`: the Affinity is 10%.
